Source: ChEMBL document CHEMBL1149774, “Synthesis of N-(5,7-diamino-3-phenyl-quinoxalin-2-yl)-3,4,5-substituted anilines and N-[4[(5,7-diamino-3-phenylquinoxalin-2-yl)amino]benzoyl]-l-glutamic acid diethyl ester: evaluation of in vitro anti-cancer and anti-folate activities” (Eur J Med Chem, 2008)

Legend:
Format in all cases: functional
[1] = tested on: SK-MEL-2; assay: Growth inhibition of human SK-MEL-2 cells after 48 hrs by SRB staining method; details: SK-MEL-2, 48 h
[2] = tested on: NCI/ADR-RES; assay: Growth inhibition of human NCI/ADR-RES cells after 48 hrs by SRB staining method
[3] = tested on: U-251; assay: Growth inhibition of human U251 cells after 48 hrs by SRB staining method; details: U-251, 48 h
[4] = tested on: A498; assay: Growth inhibition of human A498 cells after 48 hrs by SRB staining method; details: A498, 48 h
[5] = tested on: 786-0; assay: Growth inhibition of human 786-0 cells after 48 hrs by SRB staining method; details: 786-0, 48 h
[6] = tested on: Malme-3M; assay: Growth inhibition of human MALME-3M cells after 48 hrs by SRB staining method
[7] = tested on: T47D; assay: Growth inhibition of human T47D cells after 48 hrs by SRB staining method
[8] = tested on: COLO 205; assay: Growth inhibition of human COLO205 cells after 48 hrs by SRB staining method; details: COLO 205, 48 h
[9] = tested on: OVCAR-8; assay: Growth inhibition of human OVCAR8 cells after 48 hrs by SRB staining method; details: OVCAR-8, 48 h
[10] = tested on: SK-OV-3; assay: Growth inhibition of human SKOV3 cells after 48 hrs by SRB staining method; details: SK-OV-3, 48 h
[11] = tested on: UACC-257; assay: Growth inhibition of human UACC257 cells after 48 hrs by SRB staining method; details: UACC-257, 48 h
[12] = tested on: K562; assay: Growth inhibition of human K562 cells after 48 hrs by SRB staining method; details: K562, 48 h
[13] = tested on: PC-3; assay: Growth inhibition of human PC3 cells after 48 hrs by SRB staining method; details: PC-3, 48 h
[14] = tested on: SR; assay: Growth inhibition of human SR cells after 48 hrs by SRB staining method
[15] = tested on: UACC-62; assay: Growth inhibition of human UACC62 cells after 48 hrs by SRB staining method; details: UACC-62, 48 h
[16] = tested on: HL-60; assay: Growth inhibition of human HL60 cells after 48 hrs by SRB staining method; details: HL-60, 48 h
[17] = tested on: CAKI-1; assay: Growth inhibition of human CAKI1 cells after 48 hrs by SRB staining method; details: CAKI-1, 48 h
[18] = tested on: NCI-H226; assay: Growth inhibition of human NCI-H226 cells after 48 hrs by SRB staining method; details: NCI-H226, 48 h
[19] = tested on: RXF 393; assay: Growth inhibition of human RXF393 cells after 48 hrs by SRB staining method; details: RXF 393, 48 h
[20] = tested on: MCF7; assay: Growth inhibition of human MCF7 cells after 48 hrs by SRB staining method; details: MCF7, 48 h
[21] = tested on: HCT-15; assay: Growth inhibition of human HCT15 cells after 48 hrs by SRB staining method; details: HCT-15, 48 h
[22] = tested on: SNB-19; assay: Growth inhibition of human SNB19 cells after 48 hrs by SRB staining method; details: SNB-19, 48 h
[23] = tested on: NCI-H23; assay: Growth inhibition of human NCI-H23 cells after 48 hrs by SRB staining method; details: NCI-H23, 48 h
[24] = tested on: OVCAR-5; assay: Growth inhibition of human OVCAR5 cells after 48 hrs by SRB staining method; details: OVCAR-5, 48 h
[25] = tested on: MDA-MB-231; assay: Growth inhibition of human MDA-MB-231 cells after 48 hrs by SRB staining method; details: MDA-MB-231, 48 h
[26] = tested on: IGROV-1; assay: Growth inhibition of human IGROV1 cells after 48 hrs by SRB staining method; details: IGROV-1, 48 h
[27] = tested on: UO-31; assay: Growth inhibition of human UO31 cells after 48 hrs by SRB staining method; details: UO-31, 48 h
[28] = tested on: NCI-H460; assay: Growth inhibition of human NCI-H460 cells after 48 hrs by SRB staining method; details: NCI-H460, 48 h
[29] = tested on: SF-295; assay: Growth inhibition of human SF295 cells after 48 hrs by SRB staining method; details: SF-295, 48 h
[30] = tested on: SF-268; assay: Growth inhibition of human SF268 cells after 48 hrs by SRB staining method; details: SF-268, 48 h
[31] = tested on: DU-145; assay: Growth inhibition of human DU145 cells after 48 hrs by SRB staining method; details: DU-145, 48 h
[32] = read-out: pLC50 (the source's name) (converted)

Structure (SMILES): Nc1cc(N)c2nc(-c3ccccc3)c(Nc3ccc(Cl)c(Cl)c3)nc2c1
- GI50 [1]: 2.34 µM
- LC50 [1]: 69.2 µM
- TGI ([1]; read-out: pTGI (converted)): 19.1 µM
- GI50 [2]: 15.5 µM
- CC50 [2, 32]: > 100 µM
- TGI ([2]; read-out: pTGI (converted)): 55 µM
- GI50 [3]: 4.68 µM
- LC50 (50% lethal concentration) [3]: > 100 µM
- TGI ([3]; read-out: pTGI (converted)): > 100 µM
- GI50 [4]: 12 µM
- CC50 [4, 32]: 57.5 µM
- TGI ([4]; read-out: pTGI (converted)): 26.3 µM
- GI50 [5]: 14.8 µM
- CC50 [5, 32]: 93.3 µM
- TGI ([5]; read-out: pTGI (converted)): 37.2 µM
- GI50 [6]: 10.2 µM
- LC50 [6]: 57.5 µM
- TGI ([6]; read-out: pTGI (converted)): 24.5 µM
- GI50 [7]: 11.5 µM
- CC50 [7, 32]: 83.2 µM
- TGI ([7]; read-out: pTGI (converted)): 30.9 µM
- GI50 [8]: 11.7 µM
- LC50 [8]: 85.1 µM
- TGI ([8]; read-out: pTGI (converted)): 31.6 µM
- GI50 [9]: 5.13 µM
- CC50 [9, 32]: > 100 µM
- TGI ([9]; read-out: pTGI (converted)): 79.4 µM
- GI50 [10]: 13.8 µM
- CC50 [10, 32]: 70.8 µM
- TGI ([10]; read-out: pTGI (converted)): 31.6 µM
- GI50 [11]: 11.5 µM
- LC50 [11]: 69.2 µM
- TGI ([11]; read-out: pTGI (converted)): 28.2 µM
- GI50 [12]: 3.55 µM
- CC50 [12, 32]: > 100 µM
- TGI ([12]; read-out: pTGI (converted)): > 100 µM
- GI50 [13]: 3.09 µM
- CC50 [13, 32]: 89.1 µM
- TGI ([13]; read-out: pTGI (converted)): 15.1 µM
- GI50 [14]: 2.57 µM
- CC50 [14, 32]: > 100 µM
- TGI ([14]; read-out: pTGI (converted)): 15.5 µM
- GI50 [15]: 13.2 µM
- LC50 [15]: 67.6 µM
- TGI ([15]; read-out: pTGI (converted)): 30.2 µM
- GI50 [16]: 2.57 µM
- CC50 [16, 32]: > 100 µM
- TGI ([16]; read-out: pTGI (converted)): 72.4 µM
- GI50 [17]: 13.5 µM
- CC50 [17, 32]: 64.6 µM
- TGI ([17]; read-out: pTGI (converted)): 29.5 µM
- GI50 [18]: 17.4 µM
- LC50 [18]: 81.3 µM
- TGI ([18]; read-out: pTGI (converted)): 38 µM
- GI50 [19]: 6.17 µM
- CC50 [19, 32]: > 100 µM
- TGI ([19]; read-out: pTGI (converted)): 30.9 µM
- GI50 [20]: 5.01 µM
- CC50 [20, 32]: 75.9 µM
- TGI ([20]; read-out: pTGI (converted)): 20.9 µM
- GI50 [21]: 21.4 µM
- LC50 [21]: > 100 µM
- TGI ([21]; read-out: pTGI (converted)): > 100 µM
- GI50 [22]: 12.9 µM
- LC50 [22]: 70.8 µM
- TGI ([22]; read-out: pTGI (converted)): 30.2 µM
- GI50 [23]: 19.1 µM
- LC50 [23]: > 100 µM
- TGI ([23]; read-out: pTGI (converted)): 55 µM
- GI50 [24]: 28.2 µM
- LC50 [24]: 85.1 µM
- TGI ([24]; read-out: pTGI (converted)): 49 µM
- GI50 [25]: 5.75 µM
- CC50 [25, 32]: > 100 µM
- TGI ([25]; read-out: pTGI (converted)): 27.5 µM
- GI50 [26]: 4.9 µM
- LC50 [26]: 66.1 µM
- TGI ([26]; read-out: pTGI (converted)): 20.9 µM
- GI50 [27]: 11.2 µM
- CC50 [27, 32]: > 100 µM
- TGI ([27]; read-out: pTGI (converted)): 36.3 µM
- GI50 [28]: 1.58 µM
- LC50 (concentration killing 50% of cells) [28]: 56.2 µM
- TGI ([28]; read-out: pTGI (converted)): 22.9 µM
- GI50 [29]: 12.3 µM
- LC50 [29]: 63.1 µM
- TGI ([29]; read-out: pTGI (converted)): 28.2 µM
- GI50 [30]: 12 µM
- CC50 [30, 32]: 67.6 µM
- TGI ([30]; read-out: pTGI (converted)): 28.8 µM
- GI50 [31]: 16.6 µM
- CC50 [31, 32]: 63.1 µM
- TGI ([31]; read-out: pTGI (converted)): 32.4 µM
